Assay results as given in US6258547A, “Nucleic acid encoding amp-activated protein kinase” (Zeneca Limited, priority 1993, dated 2001).

Experiments:
[1] = system: AMP-activated protein kinase (AMPK) purified from rat liver; details: cited from earlier work
[2] = system: AMP-activated protein kinase (AMPK) partially purified from rat liver (DEAE-Sepharose fraction); format: biochemical; details: 200 µM
[3] = biological target: T1, Saccharomyces cerevisiae SNF1 protein kinase, wild type (Saccharomyces cerevisiae, UniProt P06782+P12904); experiment: SAMS peptide phosphorylation assay in yeast extracts; format: biochemical; details: over a range of AMP concentrations; data not shown
T1 construct: We were able to detect kinase activity using this assay in wild type yeast extracts; endogenous in cells; host or cells: wild type Saccharomyces cerevisiae extract
T1 sequence (P06782 1-633): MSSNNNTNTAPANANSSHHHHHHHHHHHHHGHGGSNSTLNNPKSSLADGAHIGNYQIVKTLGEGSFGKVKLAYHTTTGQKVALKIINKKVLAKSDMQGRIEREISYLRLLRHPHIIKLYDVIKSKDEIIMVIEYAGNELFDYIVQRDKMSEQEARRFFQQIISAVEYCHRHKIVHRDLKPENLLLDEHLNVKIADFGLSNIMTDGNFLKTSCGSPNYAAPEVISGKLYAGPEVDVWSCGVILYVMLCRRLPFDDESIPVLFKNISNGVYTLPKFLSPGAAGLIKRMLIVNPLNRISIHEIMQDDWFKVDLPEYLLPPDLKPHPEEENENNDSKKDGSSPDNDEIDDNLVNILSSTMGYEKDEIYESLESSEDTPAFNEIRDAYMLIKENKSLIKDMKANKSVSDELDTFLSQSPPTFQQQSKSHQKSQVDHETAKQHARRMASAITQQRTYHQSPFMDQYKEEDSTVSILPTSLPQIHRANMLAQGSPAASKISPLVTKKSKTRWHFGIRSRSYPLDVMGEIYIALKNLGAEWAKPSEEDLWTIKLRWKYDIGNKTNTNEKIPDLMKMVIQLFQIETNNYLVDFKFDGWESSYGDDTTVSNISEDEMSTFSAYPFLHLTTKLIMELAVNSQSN
T1 sequence (P12904 1-322): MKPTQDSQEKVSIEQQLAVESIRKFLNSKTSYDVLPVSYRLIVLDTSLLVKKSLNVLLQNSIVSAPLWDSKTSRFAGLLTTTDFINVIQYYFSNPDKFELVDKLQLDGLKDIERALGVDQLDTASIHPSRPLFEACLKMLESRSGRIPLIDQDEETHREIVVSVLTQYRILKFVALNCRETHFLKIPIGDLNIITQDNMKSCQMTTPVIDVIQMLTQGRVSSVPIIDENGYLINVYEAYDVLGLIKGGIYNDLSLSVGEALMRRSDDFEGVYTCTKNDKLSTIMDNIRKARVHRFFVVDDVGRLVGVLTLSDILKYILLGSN
Excerpt: In Saccharomyces cerevisiae SNF1 protein kinase activity is essential for release of genes from glucose repression. […] The amino acid sequences of SNF1 and AMPK are 46% identical. We investigated whether SNF1 and AMPK shared any functional similarity in addition to their primary sequence homology. […] We believe that this polypeptide is likely to be involved in the regulation of mammalian AMPK in the same way that SNF4 regulates SNF1 function in yeast. […] The apparent Km of SAMS peptide for SNF1 (20 μM) was similar to that of the AMPK (data not shown).

stimulation of AMPK activity by AMP [2]: approximately 3 fold
Compound: Nc1ncnc2c1ncn2[C@@H]1O[C@H](COP(=O)(O)O)[C@@H](O)[C@H]1O [AMP]
activation of AMPK by AMP [1]: approximately 5 fold
activation of SNF1 by AMP [3]: unable to detect any significant activation
